Laboratory results reported in patent US20030186887A1, “Compounds for detection of infection by chlamydophila abortus” (priority 2000, published 2003).
Values joined by “and” are separate entries in the source; they are usually repeats but may differ in a detail not shown here. Identical values can stand only once. Like-named read-outs stand apart in the source and are kept apart here. Ends that are not written are not given here. * marks the point of attachment. Biotin = O=C1N[C@H]2[C@H](CS[C@H]2CCCCC(=O)*)N1

Legend:
antibodies to C. abortus = assay: ELISA, serological reactivity of biotinylated peptides against serum dilutions (Tables 1 and 2); type: binding, sheep
Experimental: Application of the peptide mixture is performed as follows:
Two dilutions of standard serum are used.
The data illustrate that the length of compound has a major impact on serological reactivity.
Thus, substitutions within the core epitopes described in this invention are possible without too much loss in compound serological reactivity.

[1] = test system: sera from sheep free of infection with C. abortus
Source text: In the Applicant's experience at least two different forms of microtitration plates may be used. One form uses tresyl-activated dextran, which is applied to the polystyrene plate and forms a layer between the plate and the peptide (Gregorius et al., 1995). The commercially available plates (‘Aquabind™’) are produced by M&E, Denmark and marketed in the UK through Labsystems by Life Sciences. […] The second form of plate is one modified by coating with streptavidin. Such plates are commercially available e.g. Labsystems, Pierce and Warriner. […] The preferred microtitration plate types used to bind streptavidin are those modified to provide high protein binding e.g. Dynex Immulon 2, Greiner High Bind. To each well is added streptavidin in 150 μl volumes. The plates are incubated, preferably for 2 hours at 35-37° C., then the contents ejected and the plates washed 3 times with PBS buffer, pH 7.4 (Appendix). The plates are thoroughly dried and stored at 4° C. until required. Application of the peptide mixture is performed as follows:
The stock solutions (1 mg per ml) of the selected peptides are diluted in the same volume of carbonate-bicarbonate buffer, pH 9.6, to their optimum concentration. […] The peptide mixture solution is added in volumes of 150 μl per well. In a ‘controlled’ test, the peptide mixture is added to all wells in even numbered columns, while carbonate-bicarbonate buffer is added to all wells in odd-numbered columns in the same volume per well. In ‘screen’ tests, where control wells are not used for each sample, the peptide mixture is added to all 96 wells on the plate. The plates are incubated, preferably at 4° C. for 4 to 12 hours, then washed 4 times with PBS/Tween buffer (Appendix) and thoroughly dried, preferably for 4 hours in a fan-driven cabinet. The coated plates are placed in watertight bags with a desiccant, and the bags sealed and stored at 4° C. until required.
Two dilutions of standard serum are used. One, employed at a dilution of 1 in 1000, is used to indicate successful performance of the test (‘standard positive’). […] In the kits, the positive and cut-off standards are provided pre-diluted to working strength in a proprietary stabilisation buffer (Dako) which contains a preservative (ProClin 300; Supelco; used at 1 in 2000), and are not diluted further before addition to the test plate.
The test serum samples are diluted 1:100 in Serum Conjugate Diluent (Appendix). The test kits provide a Diluter plate, which has very low protein binding properties. By adding 15 μl of serum to 135 μl of Serum Conjugate Diluent on the Diluter plate, an initial 1 in 10 dilution is achieved. Transfer of 15 μl from the Diluter plate to 135 μl of Serum Conjugate Diluent dispensed into each well in the test plate enables a further dilution to 1 in 100 (from the original sample) on the test plate. […] Dilution of sera can also be performed, if preferred, in bijoux or tubes before their addition in 150 μl volumes to the Test plate.
Test and standard sera are incubated on the Test plate for 15 min at room temperature (˜20° C.), then 30 min at 37° C. Plate contents are then ejected and the plate washed 4 times with PBS/Tween (Appendix) and dried.
A probe to detect the presence of immunoglobulin, to which is conjugated an enzyme (the ‘conjugate’), is then added. Preferably, the probe constitutes Protein G (recombinant form, in which the moiety that binds to albumin has been eliminated; available from Sigma and Calbiochem) conjugated with horse radish peroxidase, but many forms of conjugate are available. These include, as probes, Protein A; and monoclonal or polyclonal antibodies against the immunoglobulins of the species providing the test sample.

[2] = Solubilisation of compounds; type: physicochemical; conditions: water
Experimental: Each peptide is resuspended in the preferred solvent to a concentration of 1 mg per ml. This stock solution is dispensed in 500 μl volume aliquots in 1 ml bottles, labelled and stored at −85° C. or, less preferably, at −20° C.

[3] = PS (Positive Control Serum) 1/1000
[4] = PS (Positive Control Serum) 1/15000
[5] = serum of Animal No. 13, sheep free of infection with C. abortus
[6] = serum of Animal No. 28, sheep free of infection with C. abortus
[7] = serum of Animal No. 36, sheep free of infection with C. abortus
[8] = serum of Animal No. 19, sheep free of infection with C. abortus
[9] = serum of Animal No. 31, sheep free of infection with C. abortus
[10] = serum of Animal No. 37, sheep free of infection with C. abortus
[11] = serum of Animal No. 14, sheep free of infection with C. abortus

Substance | Net Optical Density (antibodies to C. abortus; serum dilution 1/100) | Net Optical Density (antibodies to C. abortus; serum dilution 1/200) | Net Optical Density (antibodies to C. abortus; serum dilution 1/400) | Net Optical Density (antibodies to C. abortus; serum dilution 1/800) | Net Optical Density (antibodies to C. abortus; serum dilution 1/1600) | Net Optical Density (antibodies to C. abortus; serum dilution 1/3200) | Net Optical Density (antibodies to C. abortus; serum dilution 1/6400) | Net OD [Gross OD - No compound OD] [1, 3] | Net OD [Gross OD - No compound OD] [1, 4] | also measured
Biotin-KASSAAFNLVGLIVKGSSIAADQ [Compound 2/L] | 2.629 | 1.885 | 1.107 | 0.544 | 0.263 | 0.115 | 0.056 | 1.534 | 0.098 | Net OD [Gross OD - No compound OD] ([1]; serum of Animal No. 5, sheep free of infection with C. abortus): 0.285; Net OD [Gross OD - No compound OD] [1, 5]: 0.572; Net OD [Gross OD - No compound OD] [1, 6]: 0.389; Net OD [Gross OD - No compound OD] [1, 7]: 0.128
Biotin-KKKKKGLIGVKGSS L AAD [Compound 2-11] | 2.008 | 1.230 | 0.637 | 0.299 | 0.133 | 0.053 | 0.026 |  |  | effect of substituting isoleucine with leucine within Epitope 2 on reactivity (antibodies to C. abortus; 2-9 compared with 2-3, 2-11 compared with 2-5): small decrease in reactivity
Biotin-KKKKKGLIGVKGSSIAAD [Compound 2-5] | 2.344 | 1/468 and 1.468 | 0.771 | 0.358 | 0.156 | 0.066 | 0.036 |  |  | 
Biotin-KKKKKKGSSIAAD [Compound 2-2] | 1.515 | 0.786 | 0.385 | 0.174 | 0.068 | 0.046 | 0.024 |  |  | reactivity relative to that displayed by Compound 2-3 (antibodies to C. abortus; studies of Table 1): approximately 70%
Biotin-KKKKKKKGVKGSSIAADQLPN [Compound 2-7] |  |  |  |  |  |  |  | 1.038 | 0.059 | Net OD [Gross OD - No compound OD] ([1]; serum of Animal No. 11, sheep free of infection with C. abortus): 0.607; Net OD [Gross OD - No compound OD] [1, 5]: 0.198; Net OD [Gross OD - No compound OD] [1, 8]: 0.119; Net OD [Gross OD - No compound OD] ([1]; serum of Animal No. 29, sheep free of infection with C. abortus): 0.144
Biotin-KKKKKKKKKKKGSSIAAD [Compound 2-3] | 2.075 | 1.133 | 0.540 | 0.214 | 0.095 | 0.031 | 0.007 |  |  | 
Biotin-KTITGKKKKGTAAANYKTPTD [Compound 1-6] |  |  |  |  |  |  |  | 3.352 | 0.354 | Net OD [Gross OD - No compound OD] [1, 8]: 1.316; Net OD [Gross OD - No compound OD] [1, 6]: 0.114; Net OD [Gross OD - No compound OD] [1, 9]: 0.636; Net OD [Gross OD - No compound OD] [1, 7]: 0.500; Net OD [Gross OD - No compound OD] [1, 10]: 0.344
Biotin-KTITGKKVPTGTAAANYKTPT [Compound 1-5] |  |  |  |  |  |  |  | 3.744 | 0.452 | Net OD [Gross OD - No compound OD] [1, 11]: 0.978; Net OD [Gross OD - No compound OD] [1, 8]: 0.747; Net OD [Gross OD - No compound OD] [1, 6]: 0.352; Net OD [Gross OD - No compound OD] [1, 9]: 0.423; Net OD [Gross OD - No compound OD] [1, 10]: 0.580
Biotin-KTITGMGAVPTGTAAANYKT [Compound 1/AX] |  |  |  |  |  |  |  | 3.690 | 0.493 | Net OD [Gross OD - No compound OD] [1, 11]: 0.511
GKGSSIAADQNKGSSIAADQ [Compound #2] |  |  |  |  |  |  |  |  |  | solubility [2]: soluble in water
SGTAAANYKTKGTAAANYKT [Compound #1] |  |  |  |  |  |  |  |  |  | solubility [2]: soluble in water
